# Source: ChEMBL document CHEMBL4390652, “Design, biological evaluation and X-ray crystallography of nanomolar multifunctional ligands targeting simultaneously acetylcholinesterase and glycogen synthase kinase-3” (Eur J Med Chem, 2019)
# pIC50: −log10 of the molar value.
# Assays:
# [1] = target: Leukocyte tyrosine kinase receptor (Homo sapiens) (UniProt P29376); experiment: Binding affinity to wild-type human partial length LTK (P422 to S744 residues) expressed in bacterial expression system assessed as residual binding level at 10 uM by Kinomescan method relative to control
# [2] = target: Dual specificity mitogen-activated protein kinase kinase 3 (Homo sapiens) (UniProt P46734); experiment: Binding affinity to wild-type human full length MEK3 (M1 to S318 residues) expressed in mammalian expression system assessed as residual binding level at 10 uM by Kinomescan method relative to control
# [3] = target: Serine/threonine-protein kinase ULK2 (Homo sapiens) (UniProt Q8IYT8); experiment: Binding affinity to wild-type human partial length ULK2 (M1 to S301 residues) expressed in mammalian expression system assessed as residual binding level at 10 uM by Kinomescan method relative to control
# [4] = system: Tyrosine-protein kinase ABL1 (Homo sapiens), P00519 [Q252H]; experiment: Binding affinity to human phosphorylated ABL1 Q252H mutant expressed in mammalian expression system assessed as residual binding level at 10 uM by Kinomescan method relative to control
# [5] = target: Tyrosine-protein kinase JAK1 (Homo sapiens) (UniProt P23458); experiment: Binding affinity to wild-type human partial length JAK1 JH2 pseudokinase domain (R537 to D855 residues) expressed in mammalian expression system assessed as residual binding level at 10 uM by Kinomescan method relative to control
# [6] = target: Dual serine/threonine and tyrosine protein kinase (Homo sapiens) (UniProt Q6XUX3); experiment: Binding affinity to wild-type human full length RIPK5 (M1 to T929 residues) expressed in mammalian expression system assessed as residual binding level at 10 uM by Kinomescan method relative to control
# [7] = target: Serine/threonine-protein kinase 17B (Homo sapiens) (UniProt O94768); experiment: Binding affinity to wild-type human full length DRAK2 (M1 to C372 residues) expressed in bacterial expression system assessed as residual binding level at 10 uM by Kinomescan method relative to control
# [8] = target: Serine/threonine-protein kinase PRP4 homolog (Homo sapiens) (UniProt Q13523); experiment: Binding affinity to wild-type human partial length PRP4 (D657 to I1007 residues) expressed in bacterial expression system assessed as residual binding level at 10 uM by Kinomescan method relative to control
# [9] = target: NUAK family SNF1-like kinase 1 (Homo sapiens) (UniProt O60285); experiment: Binding affinity to wild-type human partial length ARK5 (E25 to I332 residues) expressed in bacterial expression system assessed as residual binding level at 10 uM by Kinomescan method relative to control
# [10] = system: Proto-oncogene tyrosine-protein kinase receptor Ret (Homo sapiens), P07949 [M918T]; experiment: Binding affinity to human partial length RET M918T mutant (E713 to D1014 residues) expressed in bacterial expression system assessed as residual binding level at 10 uM by Kinomescan method relative to control
# [11] = system: Tyrosine-protein kinase ABL1 (Homo sapiens), P00519 [F317L]; experiment: Binding affinity to human non-phosphorylated ABL1 F317L mutant (S229 to K512 residues) expressed in mammalian expression system assessed as residual binding level at 10 uM by Kinomescan method relative to control
# [12] = target: Glycogen synthase kinase-3 alpha (Homo sapiens) (UniProt P49840); experiment: Binding affinity to wild-type human full length GSK3A (M1 to S483 residues) expressed in bacterial expression system assessed as residual binding level at 10 uM by Kinomescan method relative to control
# [13] = system: eIF-2-alpha kinase GCN2 (Homo sapiens), Q9P2K8 [S808G]; experiment: Binding affinity to wild-type human partial length GCN2 kinase domain 2 (R585 to T1018 residues) S808G mutant expressed in bacterial expression system assessed as residual binding level at 10 uM by Kinomescan method relative to control
# [14] = target: Phosphatidylinositol 4-phosphate 5-kinase type-1 alpha (Homo sapiens) (UniProt Q99755); experiment: Binding affinity to wild-type human full length PIP5K1A (M1 to H562 residues) expressed in bacterial expression system assessed as residual binding level at 10 uM by Kinomescan method relative to control
# [15] = target: Mitogen-activated protein kinase kinase kinase 7 (Homo sapiens) (UniProt O43318); experiment: Binding affinity to wild-type human partial length TAK1 (M1 to Q303 residues) expressed in mammalian expression system assessed as residual binding level at 10 uM by Kinomescan method relative to control
# [16] = system: Tyrosine-protein kinase ABL1 (Homo sapiens), P00519 [F317L]; experiment: Binding affinity to human phosphorylated ABL1 F317L mutant (S229 to K512 residues) expressed in mammalian expression system assessed as residual binding level at 10 uM by Kinomescan method relative to control
# [17] = target: Mitotic checkpoint serine/threonine-protein kinase BUB1 (Homo sapiens) (UniProt O43683); experiment: Binding affinity to wild-type human partial length BUB1 (Q724 to K1085 residues) expressed in mammalian expression system assessed as residual binding level at 10 uM by Kinomescan method relative to control
# SH-SY5Y = experiment: Cytotoxicity against human SH-SY5Y cells assessed as reduction in cell viability incubated for 72 hrs by MTT assay; type: cell-based
# [18] = target: Serine/threonine-protein kinase MRCK beta (Homo sapiens) (UniProt Q9Y5S2); experiment: Binding affinity to wild-type human partial length MRCKB (L56 to S417 residues) expressed in bacterial expression system assessed as residual binding level at 10 uM by Kinomescan method relative to control
# [19] = target: Serine/threonine-protein kinase DCLK2 (Homo sapiens) (UniProt Q8N568); experiment: Binding affinity to wild-type human partial length DCAMKL2 (K273 to V664 residues) expressed in bacterial expression system assessed as residual binding level at 10 uM by Kinomescan method relative to control
# [20] = target: Ephrin type-B receptor 2 (Homo sapiens) (UniProt P29323); experiment: Binding affinity to wild-type human partial length EPHB2 (I597 to L902 residues) expressed in bacterial expression system assessed as residual binding level at 10 uM by Kinomescan method relative to control
# [21] = system: Tyrosine-protein kinase ABL1 (Homo sapiens), P00519 [T315I]; experiment: Binding affinity to human non-phosphorylated ABL1 T315I mutant (S229 to K512 residues) expressed in mammalian expression system assessed as residual binding level at 10 uM by Kinomescan method relative to control
# [22] = system: Epidermal growth factor receptor (Homo sapiens), P00533 [T790M]; experiment: Binding affinity to human partial length EGFR T790M mutant (R669 to G1022 residues) expressed in mammalian expression system assessed as residual binding level at 10 uM by Kinomescan method relative to control
# [23] = target: Dual specificity mitogen-activated protein kinase kinase 2 (Homo sapiens) (UniProt P36507); experiment: Binding affinity to wild-type human full length MEK2 (M1 to V400 residues) expressed in mammalian expression system assessed as residual binding level at 10 uM by Kinomescan method relative to control
# [24] = target: Phosphatidylinositol 3-kinase catalytic subunit type 3 (Homo sapiens) (UniProt Q8NEB9); experiment: Binding affinity to wild-type human partial length VPS34 (S282 to H879 residues) expressed in mammalian expression system assessed as residual binding level at 10 uM by Kinomescan method relative to control
# Serine/threonine-protein kinase MRCK beta (Homo sapiens), sequence (Q9Y5S2 whole entry, the tested form may be a part): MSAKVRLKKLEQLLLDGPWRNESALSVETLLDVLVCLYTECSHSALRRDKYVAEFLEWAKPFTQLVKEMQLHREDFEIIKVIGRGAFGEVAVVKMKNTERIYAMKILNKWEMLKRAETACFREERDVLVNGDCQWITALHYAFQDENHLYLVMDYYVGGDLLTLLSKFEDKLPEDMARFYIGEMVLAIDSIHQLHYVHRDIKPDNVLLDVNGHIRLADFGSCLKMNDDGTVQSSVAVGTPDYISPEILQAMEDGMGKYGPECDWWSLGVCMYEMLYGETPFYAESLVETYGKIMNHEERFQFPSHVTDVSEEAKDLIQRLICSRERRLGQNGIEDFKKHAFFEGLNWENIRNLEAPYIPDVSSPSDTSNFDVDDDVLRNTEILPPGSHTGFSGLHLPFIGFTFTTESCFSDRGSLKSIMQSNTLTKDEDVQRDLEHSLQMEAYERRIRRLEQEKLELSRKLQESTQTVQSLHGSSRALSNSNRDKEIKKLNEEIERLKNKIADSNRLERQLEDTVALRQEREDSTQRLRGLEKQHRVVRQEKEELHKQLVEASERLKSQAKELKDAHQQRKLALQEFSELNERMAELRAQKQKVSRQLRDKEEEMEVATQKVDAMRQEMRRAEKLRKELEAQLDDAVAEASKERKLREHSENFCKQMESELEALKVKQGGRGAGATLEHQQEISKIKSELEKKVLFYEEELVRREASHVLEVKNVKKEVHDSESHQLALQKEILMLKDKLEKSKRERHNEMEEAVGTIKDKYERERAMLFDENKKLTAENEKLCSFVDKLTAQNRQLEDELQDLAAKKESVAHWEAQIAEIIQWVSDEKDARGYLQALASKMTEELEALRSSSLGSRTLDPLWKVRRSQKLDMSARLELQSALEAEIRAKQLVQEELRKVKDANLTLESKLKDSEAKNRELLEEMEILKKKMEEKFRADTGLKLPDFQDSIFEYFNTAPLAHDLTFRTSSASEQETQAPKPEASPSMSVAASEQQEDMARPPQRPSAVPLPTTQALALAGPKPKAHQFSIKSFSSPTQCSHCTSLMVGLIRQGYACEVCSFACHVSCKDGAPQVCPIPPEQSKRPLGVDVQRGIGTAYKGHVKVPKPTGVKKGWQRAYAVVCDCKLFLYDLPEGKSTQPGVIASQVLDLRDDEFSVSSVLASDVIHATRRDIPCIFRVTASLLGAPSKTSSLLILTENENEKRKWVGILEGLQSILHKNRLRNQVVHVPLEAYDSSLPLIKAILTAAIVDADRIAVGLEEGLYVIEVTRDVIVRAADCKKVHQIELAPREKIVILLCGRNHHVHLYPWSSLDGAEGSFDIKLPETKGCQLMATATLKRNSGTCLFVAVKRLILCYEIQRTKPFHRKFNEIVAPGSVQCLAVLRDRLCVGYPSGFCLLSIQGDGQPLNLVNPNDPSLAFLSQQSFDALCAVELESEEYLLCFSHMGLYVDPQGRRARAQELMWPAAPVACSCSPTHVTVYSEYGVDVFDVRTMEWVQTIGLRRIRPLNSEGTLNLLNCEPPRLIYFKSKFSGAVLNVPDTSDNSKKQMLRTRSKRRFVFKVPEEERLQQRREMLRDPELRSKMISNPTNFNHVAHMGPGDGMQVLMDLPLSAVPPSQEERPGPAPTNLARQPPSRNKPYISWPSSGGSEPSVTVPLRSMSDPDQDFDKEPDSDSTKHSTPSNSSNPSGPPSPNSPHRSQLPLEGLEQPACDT
# Mitogen-activated protein kinase kinase kinase 7 (Homo sapiens), sequence (O43318 whole entry, the tested form may be a part): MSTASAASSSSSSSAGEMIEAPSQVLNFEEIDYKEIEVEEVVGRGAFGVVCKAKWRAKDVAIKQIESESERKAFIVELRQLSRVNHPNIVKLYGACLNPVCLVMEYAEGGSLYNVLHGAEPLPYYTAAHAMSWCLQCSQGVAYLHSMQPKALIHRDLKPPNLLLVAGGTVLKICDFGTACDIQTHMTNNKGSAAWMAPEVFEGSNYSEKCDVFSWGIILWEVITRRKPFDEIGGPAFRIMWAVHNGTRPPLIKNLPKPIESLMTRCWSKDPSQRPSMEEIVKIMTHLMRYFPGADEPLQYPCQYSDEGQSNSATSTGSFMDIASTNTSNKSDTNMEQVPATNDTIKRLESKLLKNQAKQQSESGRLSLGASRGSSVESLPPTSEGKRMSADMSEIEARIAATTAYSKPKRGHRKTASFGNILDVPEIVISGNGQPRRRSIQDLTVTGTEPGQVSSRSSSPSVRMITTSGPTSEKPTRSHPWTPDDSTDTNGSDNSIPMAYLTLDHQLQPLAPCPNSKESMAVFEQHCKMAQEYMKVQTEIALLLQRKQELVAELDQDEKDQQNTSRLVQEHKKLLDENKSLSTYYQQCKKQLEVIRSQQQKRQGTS
# Dual serine/threonine and tyrosine protein kinase (Homo sapiens), sequence (Q6XUX3 whole entry, the tested form may be a part): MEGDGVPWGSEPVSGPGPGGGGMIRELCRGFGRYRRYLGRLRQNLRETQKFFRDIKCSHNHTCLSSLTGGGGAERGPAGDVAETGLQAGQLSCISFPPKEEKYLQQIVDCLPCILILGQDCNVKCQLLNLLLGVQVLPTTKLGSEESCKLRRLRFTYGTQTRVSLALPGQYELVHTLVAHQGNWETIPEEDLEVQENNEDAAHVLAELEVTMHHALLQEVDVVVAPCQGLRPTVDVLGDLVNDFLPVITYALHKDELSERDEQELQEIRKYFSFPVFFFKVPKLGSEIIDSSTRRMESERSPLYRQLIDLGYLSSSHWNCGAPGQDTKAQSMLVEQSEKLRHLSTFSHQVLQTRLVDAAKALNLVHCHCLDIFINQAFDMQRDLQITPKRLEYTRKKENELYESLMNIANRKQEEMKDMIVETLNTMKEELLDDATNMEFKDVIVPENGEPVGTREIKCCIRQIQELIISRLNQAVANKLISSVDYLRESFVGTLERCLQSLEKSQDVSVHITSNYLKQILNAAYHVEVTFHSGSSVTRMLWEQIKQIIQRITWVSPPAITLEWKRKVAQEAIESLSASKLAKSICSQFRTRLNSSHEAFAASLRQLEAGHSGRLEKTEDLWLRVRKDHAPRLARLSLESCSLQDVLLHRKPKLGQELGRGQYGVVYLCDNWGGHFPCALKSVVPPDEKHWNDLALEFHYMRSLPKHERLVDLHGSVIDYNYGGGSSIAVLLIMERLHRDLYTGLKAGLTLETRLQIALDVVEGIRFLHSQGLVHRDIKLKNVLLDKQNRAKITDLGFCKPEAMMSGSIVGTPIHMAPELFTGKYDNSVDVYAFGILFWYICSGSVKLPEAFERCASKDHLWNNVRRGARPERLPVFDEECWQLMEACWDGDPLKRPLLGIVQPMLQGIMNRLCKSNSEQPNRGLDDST
# Serine/threonine-protein kinase 17B (Homo sapiens), sequence (O94768 whole entry, the tested form may be a part): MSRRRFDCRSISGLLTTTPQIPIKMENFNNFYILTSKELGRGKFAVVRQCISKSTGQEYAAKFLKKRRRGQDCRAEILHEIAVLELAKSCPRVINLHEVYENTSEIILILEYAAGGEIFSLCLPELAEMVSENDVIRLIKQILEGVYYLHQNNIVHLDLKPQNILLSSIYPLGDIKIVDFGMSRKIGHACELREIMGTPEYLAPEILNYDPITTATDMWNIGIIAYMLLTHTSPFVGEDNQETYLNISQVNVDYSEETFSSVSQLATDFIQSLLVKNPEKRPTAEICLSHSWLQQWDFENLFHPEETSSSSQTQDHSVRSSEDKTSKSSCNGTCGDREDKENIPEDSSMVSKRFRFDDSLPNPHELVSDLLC
# Dual specificity mitogen-activated protein kinase kinase 3 (Homo sapiens), sequence (P46734 whole entry, the tested form may be a part): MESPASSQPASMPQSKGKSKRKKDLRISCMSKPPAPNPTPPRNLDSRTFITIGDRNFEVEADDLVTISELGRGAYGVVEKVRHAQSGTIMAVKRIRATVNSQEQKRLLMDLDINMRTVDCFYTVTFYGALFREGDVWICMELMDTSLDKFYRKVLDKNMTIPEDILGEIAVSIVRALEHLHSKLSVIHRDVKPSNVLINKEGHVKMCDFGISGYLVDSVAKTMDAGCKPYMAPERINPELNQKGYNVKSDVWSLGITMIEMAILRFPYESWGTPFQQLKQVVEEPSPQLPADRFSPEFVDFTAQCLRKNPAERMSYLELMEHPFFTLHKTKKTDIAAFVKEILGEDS
# Dual specificity mitogen-activated protein kinase kinase 2 (Homo sapiens), sequence (P36507 whole entry, the tested form may be a part): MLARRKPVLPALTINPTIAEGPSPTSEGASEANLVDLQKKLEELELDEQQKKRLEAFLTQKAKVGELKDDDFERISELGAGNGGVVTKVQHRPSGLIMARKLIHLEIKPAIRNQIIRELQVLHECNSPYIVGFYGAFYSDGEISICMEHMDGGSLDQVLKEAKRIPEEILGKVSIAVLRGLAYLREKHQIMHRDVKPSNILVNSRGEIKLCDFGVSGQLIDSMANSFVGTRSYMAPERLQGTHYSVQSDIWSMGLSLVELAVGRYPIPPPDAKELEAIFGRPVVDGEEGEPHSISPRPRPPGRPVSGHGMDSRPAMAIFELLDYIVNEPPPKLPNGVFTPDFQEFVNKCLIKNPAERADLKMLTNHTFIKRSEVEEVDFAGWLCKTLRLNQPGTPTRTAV
# Glycogen synthase kinase-3 alpha (Homo sapiens), sequence (P49840 2-483 limits assumed): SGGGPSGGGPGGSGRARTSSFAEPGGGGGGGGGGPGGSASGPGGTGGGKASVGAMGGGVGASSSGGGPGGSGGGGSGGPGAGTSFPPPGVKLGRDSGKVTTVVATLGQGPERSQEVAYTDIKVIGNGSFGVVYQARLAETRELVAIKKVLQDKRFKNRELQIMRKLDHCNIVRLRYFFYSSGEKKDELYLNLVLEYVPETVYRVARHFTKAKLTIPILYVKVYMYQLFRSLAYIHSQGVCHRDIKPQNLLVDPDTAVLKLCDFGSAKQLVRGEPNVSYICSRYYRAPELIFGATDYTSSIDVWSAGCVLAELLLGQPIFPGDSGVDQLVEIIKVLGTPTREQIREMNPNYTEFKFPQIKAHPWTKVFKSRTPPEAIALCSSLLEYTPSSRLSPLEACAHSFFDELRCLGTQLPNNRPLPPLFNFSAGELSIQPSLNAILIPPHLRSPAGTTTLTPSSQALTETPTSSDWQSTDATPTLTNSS
compound,measurement,setting,value
O=C(Nc1cc(-c2cn(CCNc3c4c(nc5ccccc35)CCCC4)nn2)ccn1)Nc1cccc2c1C1CCCCN1C2=O (racemic),Activity,[1],100%
same,Activity,[2],70%
same,Activity,[3],16%
same,Activity,[4],1.4%
same,Activity,[5],36%
same,Activity,[6],49%
same,Activity,[7],1.7%
same,Activity,[8],15%
same,Activity,[9],0.85%
same,Activity,[10],42%
same,Activity,[11],78%
same,Activity,[12],0.3%
same,Activity,[13],75%
same,Activity,[14],22%
same,Activity,[15],1.6%
same,Activity,[16],20%
same,Activity,[17],6.4%
same,pIC50,SH-SY5Y,4.89
same,Activity,[18],99%
same,Activity,[19],90%
same,Activity,[20],61%
same,Activity,[21],18%
same,Activity,[22],70%
same,Activity,[23],11%
same,Activity,[24],3.7%
